{
  "source": "paper PMC6437697",
  "about": "(Journal of Medicinal Chemistry, 2019)",
  "test_in_all_cases": "KINOMEscan",
  "assay_type_in_all_cases": "binding",
  "conditions_in_all_cases": "read-out: % control activity remaining",
  "key": {"[1]": {"target": "T1, PRKD1 (Homo sapiens, UniProt Q15139)", "T1 construct": "purchased Eurofins DiscoverX KINOMEscan", "T1 sequence (Q15139 1-912)": "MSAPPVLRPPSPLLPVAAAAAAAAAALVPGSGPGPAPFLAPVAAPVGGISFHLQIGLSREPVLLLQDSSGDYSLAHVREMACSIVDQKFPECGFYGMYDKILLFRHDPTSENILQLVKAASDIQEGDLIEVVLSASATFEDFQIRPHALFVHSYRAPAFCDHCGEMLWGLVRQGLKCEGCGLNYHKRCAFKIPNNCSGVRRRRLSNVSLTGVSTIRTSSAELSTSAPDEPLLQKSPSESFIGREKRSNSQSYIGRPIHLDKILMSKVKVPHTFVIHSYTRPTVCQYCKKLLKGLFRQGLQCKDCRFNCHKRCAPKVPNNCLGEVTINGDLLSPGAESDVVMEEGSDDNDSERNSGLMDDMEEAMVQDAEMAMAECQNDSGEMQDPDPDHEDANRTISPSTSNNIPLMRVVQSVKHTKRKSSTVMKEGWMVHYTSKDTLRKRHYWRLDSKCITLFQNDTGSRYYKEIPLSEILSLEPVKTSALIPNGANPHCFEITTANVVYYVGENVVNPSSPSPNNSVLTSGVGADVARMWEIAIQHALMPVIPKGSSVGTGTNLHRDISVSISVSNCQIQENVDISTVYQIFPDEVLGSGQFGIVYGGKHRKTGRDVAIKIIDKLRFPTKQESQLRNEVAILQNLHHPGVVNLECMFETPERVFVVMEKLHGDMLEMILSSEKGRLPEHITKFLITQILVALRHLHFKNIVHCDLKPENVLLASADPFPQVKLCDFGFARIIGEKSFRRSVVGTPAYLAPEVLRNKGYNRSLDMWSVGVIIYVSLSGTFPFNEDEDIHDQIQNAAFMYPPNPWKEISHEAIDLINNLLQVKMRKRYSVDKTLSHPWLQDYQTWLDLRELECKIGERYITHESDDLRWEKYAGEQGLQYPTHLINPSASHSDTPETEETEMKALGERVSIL"}, "[2]": {"target": "T2, FLT3(D835H) (Homo sapiens, UniProt P36888, D835H)", "T2 construct": "purchased Eurofins DiscoverX KINOMEscan", "T2 sequence (P36888 27-993 D835H)": "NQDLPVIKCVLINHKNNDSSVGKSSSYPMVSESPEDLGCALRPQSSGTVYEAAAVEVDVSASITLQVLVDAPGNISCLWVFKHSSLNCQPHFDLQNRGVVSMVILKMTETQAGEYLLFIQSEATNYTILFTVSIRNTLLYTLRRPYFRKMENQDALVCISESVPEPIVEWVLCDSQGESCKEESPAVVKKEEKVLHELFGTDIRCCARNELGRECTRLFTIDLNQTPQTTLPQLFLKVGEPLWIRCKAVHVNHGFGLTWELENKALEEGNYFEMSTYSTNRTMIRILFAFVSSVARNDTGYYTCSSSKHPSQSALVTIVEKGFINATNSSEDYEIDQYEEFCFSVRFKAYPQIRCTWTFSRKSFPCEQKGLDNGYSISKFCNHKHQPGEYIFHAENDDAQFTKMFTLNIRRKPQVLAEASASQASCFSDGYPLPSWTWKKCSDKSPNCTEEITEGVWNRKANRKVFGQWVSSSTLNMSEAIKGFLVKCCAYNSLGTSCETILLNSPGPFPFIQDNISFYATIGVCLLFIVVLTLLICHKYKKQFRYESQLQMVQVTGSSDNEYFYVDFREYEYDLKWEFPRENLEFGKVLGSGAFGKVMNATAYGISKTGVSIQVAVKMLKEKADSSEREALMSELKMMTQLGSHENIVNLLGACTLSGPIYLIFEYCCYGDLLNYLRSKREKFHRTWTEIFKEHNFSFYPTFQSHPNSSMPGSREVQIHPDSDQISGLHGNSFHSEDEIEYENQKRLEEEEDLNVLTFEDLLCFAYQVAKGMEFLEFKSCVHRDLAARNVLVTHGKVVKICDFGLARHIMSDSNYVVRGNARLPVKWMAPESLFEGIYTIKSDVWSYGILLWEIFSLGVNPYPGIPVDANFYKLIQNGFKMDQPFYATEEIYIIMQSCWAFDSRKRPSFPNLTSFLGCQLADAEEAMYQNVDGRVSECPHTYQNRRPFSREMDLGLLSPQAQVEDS"}, "[3]": {"target": "T3, PRKG2 (Homo sapiens, UniProt Q13237)", "T3 construct": "purchased Eurofins DiscoverX KINOMEscan", "T3 sequence (Q13237 1-762)": "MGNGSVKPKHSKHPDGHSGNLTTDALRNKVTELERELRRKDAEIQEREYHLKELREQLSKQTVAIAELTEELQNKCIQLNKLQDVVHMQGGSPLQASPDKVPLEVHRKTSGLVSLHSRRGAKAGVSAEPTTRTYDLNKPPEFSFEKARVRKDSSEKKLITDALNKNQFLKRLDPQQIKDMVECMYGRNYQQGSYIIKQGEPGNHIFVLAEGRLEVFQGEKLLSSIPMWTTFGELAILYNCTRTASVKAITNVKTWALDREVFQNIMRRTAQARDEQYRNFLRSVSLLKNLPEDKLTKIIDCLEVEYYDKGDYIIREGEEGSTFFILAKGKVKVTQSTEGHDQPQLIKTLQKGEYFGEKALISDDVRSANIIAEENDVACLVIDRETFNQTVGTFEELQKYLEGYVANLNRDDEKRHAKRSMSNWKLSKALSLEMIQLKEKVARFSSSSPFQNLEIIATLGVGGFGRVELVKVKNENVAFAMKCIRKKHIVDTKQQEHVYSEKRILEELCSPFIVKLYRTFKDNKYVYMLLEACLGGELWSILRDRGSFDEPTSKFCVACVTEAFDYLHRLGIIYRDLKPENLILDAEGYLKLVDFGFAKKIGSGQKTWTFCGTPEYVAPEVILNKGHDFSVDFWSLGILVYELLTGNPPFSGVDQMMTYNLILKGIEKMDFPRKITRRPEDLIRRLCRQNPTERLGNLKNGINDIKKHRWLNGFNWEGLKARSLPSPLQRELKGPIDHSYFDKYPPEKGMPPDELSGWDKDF"}},
  "data": [
    {"smiles": "Clc1cc(NCC2CC2)c2ncc(-c3ccc4[nH]ncc4c3)n2n1", "note": "[compound 2, 6-Chloro-N-(cyclopropylmethyl)-3-(1H-indazol-5-yl)imidazo[1,2-b]pyridazin-8-amine]", "values": [
      {"measurement": "remaining binding at 1 µM", "setting": "[1]", "result": 100, "unit": "%"},
      {"measurement": "remaining binding at 1 µM", "setting": "[2]", "result": 13, "unit": "%"},
      {"measurement": "remaining binding at 1 µM", "setting": "[3]", "result": 84, "unit": "%"}
    ]},
    {"smiles": "O=C(CN1CCOCC1)N[C@H]1CC[C@H](Nc2cc(Cl)nn3c(-c4ccc5[nH]ncc5c4)cnc23)CC1", "note": "[compound 26]", "values": [
      {"measurement": "remaining binding at 1 µM", "setting": "[1]", "result": 98, "unit": "%"},
      {"measurement": "remaining binding at 1 µM", "setting": "[2]", "result": 5.5, "unit": "%"},
      {"measurement": "remaining binding at 1 µM", "setting": "[3]", "result": 64, "unit": "%"}
    ]},
    {"smiles": "CN1CCC(CNc2cc(Cl)nn3c(-c4cc5nc(Nc6ccccc6)[nH]c5cc4F)cnc23)CC1", "note": "[compound 31, 6-Chloro-3-(6-fluoro-2-(phenylamino)-1H-benzo[d]imidazol-5-yl)-N-((1-methylpiperidin-4-yl)methyl)imidazo[1,2-b]pyridazin-8-amine]", "values": [
      {"measurement": "remaining binding at 1 µM", "setting": "[1]", "result": 99, "unit": "%"},
      {"measurement": "remaining binding at 1 µM", "setting": "[2]", "result": 90, "unit": "%"},
      {"measurement": "remaining binding at 1 µM", "setting": "[3]", "result": 64, "unit": "%"}
    ]}
  ]
}
